Laboratory results as given in patent US20130078613A1, “Selection of HCV Treatment” (ROCHE MOLECULAR SYSTEMS, priority 2011, published 2013).
Marks after values point to notes of the source that are not given here.

Tests used:
NS5B (S282T) = target: T1, NS5B (S282T) (Hepatitis C virus genotype 1b, UniProt Q9WMX2, S2701T); conditions: sequential passage of replicon cells; cited from earlier work
T1 construct: Amino acid substitution in NS5B (S282T)

[1] = extensively converted to RO4995855; cited from earlier work
CHC genotype 1 or 4 [2] = experiment: Clinical Study NV22621; type: in vivo, human
From the text: (§1) The term “response” to treatment is a desirable response to the administration of an agent. Virological endpoints included “early virological response” (EVR), defined as ≧2-log drop in serum HCV RNA from baseline to week 12 (by Cobas Amplicor HCV Monitor Test, v2.0, limit of quantitation 600 IU/mL), complete EVR (cEVR) defined as undetectable HCV RNA (<15 IU/mL) in serum (by Cobas Amplicor HCV Test v2.0, […]) or and “sustained virological response” (SVR), defined as undetectable HCV RNA (<15 IU/mL) at the end of either a 12-week (SVR-12) or a 24-week (SVR-24) untreated follow-up period. The term “sustained rapid virological response” (sRVR) refers to undetectable HCV RNA (<15 IU/mL) during the period of 4 weeks and 22 weeks of treatment. The term “extended rapid virological response” (eRVR) refers to undetectable HCV RNA (<15 IU/mL) during the period of between 4 weeks and 20 weeks of treatment.
Study NV22621 was designed to determine the safety and efficacy of longer treatment duration (24 weeks) of 1000 mg BID RO5024048 in combination with PEG-IFN/RBV in treatment naïve CHC genotype 1 or 4 patients. Patients enrolled in Study NV22621 were randomized to one of two treatment groups (FIG. 1B) (approximately 80 patients per treatment group). In the response-guided treatment group, patients with a sustained RVR (sRVR, defined as undetectable HCV RNA from week 4-22) stopped all therapy at Week 24.
(§2) The Roche Clinical Repository (RCR) is an optional program that requires separate consent; data are anonymized to assure patient privacy. The RCR DNA samples were used to determine IL28B status using TaqMan Real-Time PCR. Efficacy endpoints were summarized for the two subgroups, CC vs. non-CC (CT and TT).

HCV [3] = conditions: combination with PEG-IFN and RBV; cited from earlier work
HCV genotypes (1-4) = conditions: four main genotypes (1-4); cited from earlier work
CHC genotype 1 or 4 [4] = experiment: Clinical Study NV20536; type: in vivo, human; conditions: for SVR-12 and SVR-24: across RVR-guided arms; for relapse / SVR-12 (%) / SVR-12 n/N / SVR-24 (%) / SVR-24 n/N: sRVR patients
From the text: as §1
Study NV20536 was designed to determine the optimal dose (500 or 1000 mg twice daily [BID]) and duration (8 or 12 weeks) of RO5024048 in combination with PEG-IFN/RBV in treatment-naïve CHC genotype 1 or 4 patients. Patients enrolled in Study NV20536 were randomized to one of five treatment groups (FIG. 1A) (approximately 80 patients per treatment group). In the response-guided treatment groups, patients with a sustained RVR (sRVR, defined as undetectable HCV RNA from week 4-22) stopped all therapy at Week 24.
Patients received double blinded experimental treatment with RO5024048 500 mg BID and standard of care treatment (SOC, Pegasys 180 μg sc qw+Copegus 1000 mg (<75 kg) or 1200 mg (≧75 kg) po qd) or RO5024048 1000 mg BID and SOC respectively, for 12 weeks followed by SOC for 12 weeks. Patients who achieve an RVR, defined as undetectable HCV RNA at week 4, and remain undetectable through week 22 stopped all treatment at week 24. Non-RVR patients received SOC for an additional 24 weeks for a total treatment duration of 48 weeks.
Patients received double blinded experimental treatment with RO5024048 1000 mg BID and SOC for 8 weeks followed by SOC for 16 weeks. Patients who achieve an RVR defined as undetectable HCV RNA at week 4, and remain undetectable through week 22 stopped all treatment at week 24. Non-RVR patients received SOC for an additional 24 weeks for a total treatment duration of 48 weeks. […]
as §2, with “PCR for rs12979860.” for “PCR.”

[5] = target: NS5B-directed HCV polymerase (Hepatitis C virus genotype 1b, UniProt Q9WMX2); conditions: ref [7]; cited from earlier work
HCV [6] = conditions: RBV monotherapy; cited from earlier work
[7] = Group A, 1000 mg 24 wks + P/R RVR-guided, Total, sRVR patients
[8] = Group A, 500 mg 12 wks + P/R RVR-guided, IL28B CC
[9] = Group A, 500 mg 12 wks + P/R RVR-guided, IL28B NonCC
[10] = Group A, 500 mg 12 wks + P/R RVR-guided, Total
[11] = Group B, 1000 mg 8 wks + P/R RVR-guided, IL28B CC
[12] = Group B, 1000 mg 8 wks + P/R RVR-guided, IL28B NonCC
[13] = Group B, 1000 mg 8 wks + P/R RVR-guided, Total
[14] = Group C, 1000 mg 12 wks + P/R RVR-guided, IL28B CC
[15] = Group C, 1000 mg 12 wks + P/R RVR-guided, IL28B NonCC
[16] = Group C, 1000 mg 12 wks + P/R RVR-guided, Total

Sequence of NS5B-directed HCV polymerase (Q9WMX2 2420-3010): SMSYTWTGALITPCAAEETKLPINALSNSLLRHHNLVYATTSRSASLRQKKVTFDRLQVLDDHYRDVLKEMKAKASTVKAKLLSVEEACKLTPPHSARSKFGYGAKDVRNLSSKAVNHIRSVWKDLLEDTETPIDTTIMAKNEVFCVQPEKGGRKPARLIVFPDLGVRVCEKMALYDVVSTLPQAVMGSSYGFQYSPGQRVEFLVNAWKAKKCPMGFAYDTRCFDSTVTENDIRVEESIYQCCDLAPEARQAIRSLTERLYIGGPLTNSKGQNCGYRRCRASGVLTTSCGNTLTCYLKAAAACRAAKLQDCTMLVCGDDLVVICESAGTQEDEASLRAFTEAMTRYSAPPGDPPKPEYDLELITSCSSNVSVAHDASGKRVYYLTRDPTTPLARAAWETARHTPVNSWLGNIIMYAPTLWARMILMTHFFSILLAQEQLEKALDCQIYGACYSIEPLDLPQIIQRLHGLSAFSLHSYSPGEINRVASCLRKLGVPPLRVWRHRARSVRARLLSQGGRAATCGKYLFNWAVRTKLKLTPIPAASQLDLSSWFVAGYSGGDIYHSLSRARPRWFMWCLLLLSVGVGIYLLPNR
T1 sequence (Q9WMX2 2420-3010 S2701T): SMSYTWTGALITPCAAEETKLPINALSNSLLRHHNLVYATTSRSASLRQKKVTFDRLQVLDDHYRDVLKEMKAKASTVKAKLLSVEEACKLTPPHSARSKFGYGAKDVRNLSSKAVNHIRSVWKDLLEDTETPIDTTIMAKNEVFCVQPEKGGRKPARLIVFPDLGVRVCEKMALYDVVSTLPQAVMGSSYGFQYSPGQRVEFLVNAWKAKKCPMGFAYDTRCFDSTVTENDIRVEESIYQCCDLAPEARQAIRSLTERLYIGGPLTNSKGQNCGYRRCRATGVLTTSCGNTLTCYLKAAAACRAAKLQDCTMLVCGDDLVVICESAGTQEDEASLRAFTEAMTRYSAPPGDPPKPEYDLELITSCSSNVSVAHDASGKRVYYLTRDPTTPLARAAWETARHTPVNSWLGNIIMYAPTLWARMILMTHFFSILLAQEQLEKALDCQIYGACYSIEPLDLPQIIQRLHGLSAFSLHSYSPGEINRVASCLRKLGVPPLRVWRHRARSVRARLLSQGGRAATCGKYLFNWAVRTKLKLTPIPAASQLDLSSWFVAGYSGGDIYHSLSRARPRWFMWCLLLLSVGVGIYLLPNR

Structure (SMILES): CC(C)C(=O)OC[C@H]1O[C@@H](n2ccc(N)nc2=O)[C@](C)(F)[C@@H]1OC(=O)C(C)C [RO5024048, mericitabine]
- resistance conferred by NS5B S282T substitution (NS5B (S282T)): low level resistance
- absorption after oral administration [1]: rapidly absorbed
- cEVR (CHC genotype 1 or 4 [2]; 1000-mg group, RCR-consented population): 94%
- SVR-12 n/N (CHC genotype 1 or 4 [2]; Group A, 1000 mg 24 wks + P/R RVR-guided, IL28B CC, sRVR patients): 12/15
- SVR-12 n/N (CHC genotype 1 or 4 [2]; Group A, 1000 mg 24 wks + P/R RVR-guided, IL28B NonCC, sRVR patients): 13/18
- SVR-12 (%) (CHC genotype 1 or 4 [2]; [7]): (75.0%)*
- SVR-12 n/N (CHC genotype 1 or 4 [2]; [7]): 24/32
- sRVR (%) (CHC genotype 1 or 4 [2]; Group A, RO5024048 1000 mg 24 wks + P/R 24/48 wks RVR-guided, N = 52, Total): (63.5%)
- RVR (CHC genotype 1 or 4 [2]; RVR-guided 1000-mg group (24 wks with PEG-IFN/RBV), overall population): 63%
- cEVR (CHC genotype 1 or 4 [2]; RVR-guided 1000-mg group, overall ITT population): 89%
- week-24 virological response (CHC genotype 1 or 4 [2]; RVR-guided 1000-mg group, overall population): 91%
- maximal rate of undetectable viral load (CHC genotype 1 or 4 [2]; non-CC genotype, 24 weeks of triple therapy, at weeks 20 to 24 (data not shown)): > 90%
- antiviral effect of combination (HCV [3]): additive antiviral effect
- in vitro activity across genotypes (HCV genotypes (1-4)): Activity has been demonstrated
- RVR (undetectable HCV RNA at week 4) (CHC genotype 1 or 4 [4]; 500-mg 12-week RVR-guided group, with PEG-IFN/RBV, overall population): 38%
- SVR-12 and SVR-24 (CHC genotype 1 or 4 [4]; CC patients who achieve sRVR and stop all treatment after 24 weeks): 67-90%
- relapse (CHC genotype 1 or 4 [4]; CC, arm A, 12 weeks followup after EOT): 2/8
- relapse (CHC genotype 1 or 4 [4]; CC, arm A, 24 weeks followup after EOT): 2/7
- relapse (CHC genotype 1 or 4 [4]; CC, arm C, 12 weeks followup after EOT): 4/12
- relapse (CHC genotype 1 or 4 [4]; CC, arm C, 24 weeks followup after EOT): 4/12
- SVR-12 (%) (CHC genotype 1 or 4 [4]; [8]): (75.0%)
- SVR-12 n/N (CHC genotype 1 or 4 [4]; [8]): 6/8
- SVR-24 (%) (CHC genotype 1 or 4 [4]; [8]): (85.7%)
- SVR-24 n/N (CHC genotype 1 or 4 [4]; [8]): 6/7
- SVR-12 (%) (CHC genotype 1 or 4 [4]; [9]): (66.7%)
- SVR-12 n/N (CHC genotype 1 or 4 [4]; [9]): 6/9
- SVR-24 (%) (CHC genotype 1 or 4 [4]; [9]): (55.6%)
- SVR-24 n/N (CHC genotype 1 or 4 [4]; [9]): 5/9
- SVR-12 (%) (CHC genotype 1 or 4 [4]; [10]): (70.6%)*
- SVR-12 n/N (CHC genotype 1 or 4 [4]; [10]): 12/17
- SVR-24 (%) (CHC genotype 1 or 4 [4]; [10]): (68.8%)*
- SVR-24 n/N (CHC genotype 1 or 4 [4]; [10]): 11/16
- sRVR (%) (CHC genotype 1 or 4 [4]; Group A, RO5024048 500 mg 12 wks + P/R 24/48 wks RVR-guided, N = 49, Total): (36.7%)
- SVR-12 (%) (CHC genotype 1 or 4 [4]; [11]): (90.0%)
- SVR-12 n/N (CHC genotype 1 or 4 [4]; [11]): 9/10
- SVR-24 (%) (CHC genotype 1 or 4 [4]; [11]): (80.0%)
- SVR-24 n/N (CHC genotype 1 or 4 [4]; [11]): 8/10
- SVR-12 (%) (CHC genotype 1 or 4 [4]; [12]): (38.5%)
- SVR-12 n/N (CHC genotype 1 or 4 [4]; [12]): 5/13
- SVR-24 (%) (CHC genotype 1 or 4 [4]; [12]): (25.0%)
- SVR-24 n/N (CHC genotype 1 or 4 [4]; [12]): 3/12
- SVR-12 (%) (CHC genotype 1 or 4 [4]; [13]): (60.9%)
- SVR-12 n/N (CHC genotype 1 or 4 [4]; [13]): 14/23
- SVR-24 (%) (CHC genotype 1 or 4 [4]; [13]): (50.0%)*
- SVR-24 n/N (CHC genotype 1 or 4 [4]; [13]): 11/22
- sRVR (%) (CHC genotype 1 or 4 [4]; Group B, RO5024048 1000 mg 8 wks + P/R 24/48 wks RVR-guided, N = 49, Total): (46.9%)
- SVR-12 n/N (CHC genotype 1 or 4 [4]; [14]): 8/12
- SVR-24 (%) (CHC genotype 1 or 4 [4]; [14]): (66.7%)
- SVR-24 n/N (CHC genotype 1 or 4 [4]; [14]): 8/12
- SVR-12 n/N (CHC genotype 1 or 4 [4]; [15]): 5/18
- SVR-24 (%) (CHC genotype 1 or 4 [4]; [15]): (22.2%)
- SVR-24 n/N (CHC genotype 1 or 4 [4]; [15]): 4/18
- SVR-12 (%) (CHC genotype 1 or 4 [4]; [16]): (43.3%)
- SVR-12 n/N (CHC genotype 1 or 4 [4]; [16]): 13/30
- SVR-24 (%) (CHC genotype 1 or 4 [4]; [16]): (40.0%)
- SVR-24 n/N (CHC genotype 1 or 4 [4]; [16]): 12/30
- sRVR (%) (CHC genotype 1 or 4 [4]; Group C, RO5024048 1000 mg 12 wks + P/R 24/48 wks RVR-guided, N = 46, Total): (65.2%)
- SVR-12 and SVR-24 (CHC genotype 1 or 4 [4]; non-CC patients who achieve sRVR and stop all treatment after 24 weeks): 22-67%
- relapse (CHC genotype 1 or 4 [4]; non-CC, Arm A, 12 weeks followup after EOT): 3/9
- relapse (CHC genotype 1 or 4 [4]; non-CC, Arm A, 24 weeks followup after EOT): 4/9
- relapse (CHC genotype 1 or 4 [4]; non-CC, Arm C, 12 weeks followup after EOT): 13/18
- relapse (CHC genotype 1 or 4 [4]; non-CC, Arm C, 24 weeks followup after EOT): 14/18
- IC50 [5]: 610 ± 40 nM

Structure (SMILES): NC(=O)c1ncn([C@@H]2O[C@H](CO)[C@@H](O)[C@H]2O)n1 [ribavirin, 1-((2R,3R,4S,5R)-3,4-Dihydroxy-5-hydroxymethyl-tetrahydro-furan-2-yl)-1H-[1,2,4]triazole-3-carboxylic acid amide]
- effect on the replication of HCV (HCV [6]): little or no effect
